# Target: T1, Kv4.2 (Homo sapiens, UniProt Q9NZV8)
# T1 construct: expressed in transfected cells; host or cells: Xenopus laevis oocytes (cRNA injection, pRAT vector)
# T1 sequence (Q9NZV8 1-630): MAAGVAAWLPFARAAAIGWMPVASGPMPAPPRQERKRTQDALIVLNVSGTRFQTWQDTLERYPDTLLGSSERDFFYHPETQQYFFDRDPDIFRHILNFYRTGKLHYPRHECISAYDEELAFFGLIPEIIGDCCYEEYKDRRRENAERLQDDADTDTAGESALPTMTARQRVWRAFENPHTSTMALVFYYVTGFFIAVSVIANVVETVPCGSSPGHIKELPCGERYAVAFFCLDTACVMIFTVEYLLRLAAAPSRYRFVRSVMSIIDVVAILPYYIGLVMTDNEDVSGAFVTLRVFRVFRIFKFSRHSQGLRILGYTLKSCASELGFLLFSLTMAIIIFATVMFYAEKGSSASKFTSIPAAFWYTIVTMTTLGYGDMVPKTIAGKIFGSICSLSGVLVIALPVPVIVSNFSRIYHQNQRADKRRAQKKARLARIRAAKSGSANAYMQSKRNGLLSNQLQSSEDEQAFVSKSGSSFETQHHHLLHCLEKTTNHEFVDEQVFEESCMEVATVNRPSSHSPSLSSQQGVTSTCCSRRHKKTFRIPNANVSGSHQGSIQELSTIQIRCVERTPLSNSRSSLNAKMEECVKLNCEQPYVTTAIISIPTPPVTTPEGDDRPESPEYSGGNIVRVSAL
# Test: TEVC of X. laevis oocytes expressing Kv4.2
# Format: cell-based
# Text: Kv2.1 mutants were constructed using the QuickChange Multi Site-Directed Mutagenesis Kit (Stratagene, La Jolla, Calif.). Mutant Kv2.1 genes (in the pGA1 oocyte expression vector for oocyte expression) were sequenced in their entirety to confirm appropriate mutations and check for inadvertent mutations, and then subcloned into a wild-type pGA1 backbone. For oocyte expression, Kv3.4 was in pBF1, Kv4.2 was in pRAT. cRNA transcripts were produced from SacII-linearized (Kv2.1), Mlullinearized (Kv3.4) and Not1-linearized (Kv4.2) DNA templates using the T3 (Kv2.1), SP6 (Kv3.4) and T7 (Kv4.2) mMessage mMachine kits (Ambion, Austin, Tex.). cRNA was quantified by spectrophotometry and its size integrity verified by gel electophoresis. Defolliculated stage V and VI Xenopus laevis oocytes (purchased from Nasco, Grand Island, N.Y.) were injected with 5 ng of cRNA encoding Kv2.1, Kv3.4 or Kv4.2. Chinese Hamster Ovary (CHO) cells were transfected with 0.25 μg Kv2.1 cDNA, 2 μg blank plasmid and 2 μg Green fluorescent Protein in pBOB using Supetfect transfection reagent (Qiagen) 24 hours before whole-cell voltage clamp studies.
# Whole-cell two-electrode voltage-clamp (TEVC) recordings were performed on X laevis oocytes expressing cloned Kv2.1, Kv3.4 or Kv4.2 using a Warner OC-725C amplifier and pClamp9 (Axon Instruments, Foster City, Calif.) software. Oocytes were bathed in a small-volume Warner oocyte bath and viewed with a Fisher dissection microscope. Bath solution for whole-cell oocyte recordings was (in mM): 96 NaCl, 4 KCl, 0.7 MgCl2, 1 CaCl2, 10 HEPES (pH 7.4); whole-cell oocyte TEVC pipettes were of 0.2-2 M resistance when filled with 3 M KCl. Experiments were performed 24-48 hours after cRNA injection. For assessment of current-voltage relationships in the absence or presence of dabco derivatives, oocytes were held at −80 mV, stepped for 2 seconds at voltages between −80 mV and +60 mV in 20 mV steps (Kv2.1) or between −80 and +50 mV in 10 mV steps (Kv3.4), then held for 500 ms at −40 mV before returning to the holding potential. […]
smiles,measurement,setting,value
"c1cc(C[N+]23CCN(CC2)CC3)ccc1C[N+]12CCN(CC1)CC2 [JC638.2α, α,α′-[bis(4-aza-1-azoniabicyclo[2.2.2]octanyl)]p-xylene]",block of Kv4.2,0.5 mM,38%
"CCCCCCCCCCCC[N+]12CCN(CC1)CC2 [JE188, 1-aza-4-azonia-4-dodecylbicyclo[2.2.2]octane]",block of Kv4.2,100 μM,3%
"C(CCCC[N+]12CCN(CC1)CC2)CCC[N+]12CCN(CC1)CC2 [TG27, 1,8-[bis(4-aza-1-azoniabicyclo[2.2.2]octanyl)]octane]",block of Kv4.2,1 mM,3%

# Source: US8143254B2, “Methods for modulating ion channels” (Cornell Research Foundation, Inc., priority 2005, dated 2012)
